Data taken from publication PMC6704710, “Preclinical evaluation of 3D185, a novel potent inhibitor of FGFR1/2/3 and CSF-1R, in FGFR-dependent and macrophage-dominant cancer models” (Journal of Experimental & Clinical Cancer Research : CR, 2019).
Where two headings read alike, the source gives them in different places.

Columns and labels:
[1] = target: T1, FGFR2 (Homo sapiens, UniProt P21802); assay: Kinase inhibition assay (ELISA); format: biochemical; settings: mean ± SD
T1 construct: purchased Eurofins (Fremont, United States)

[2] = target: T2, FGFR3 (Homo sapiens, UniProt P22607); assay: Kinase inhibition assay (ELISA); format: biochemical; settings: mean ± SD
T2 construct: purchased Eurofins (Fremont, United States)

[3] = target: T3, CHK2(R145W)(h) (Homo sapiens, UniProt O96017, R145W); assay: Eurofins kinase panel; format: biochemical; settings: read-out: Inhibition rate (%)
T3 construct: purchased Eurofins (KinaseProfiler)

[4] = target: T4, SAPK2a(T106M)(h) (Homo sapiens, UniProt Q16539, T106M); assay: Eurofins kinase panel; format: biochemical; settings: read-out: Inhibition rate (%)
T4 construct: purchased Eurofins (KinaseProfiler)

[5] = target: T5, TSSK4(h) (Homo sapiens, UniProt Q6SA08); assay: Eurofins kinase panel; format: biochemical; settings: read-out: Inhibition rate (%)
T5 construct: purchased Eurofins (KinaseProfiler)
T5 sequence (Q6SA08 1-328): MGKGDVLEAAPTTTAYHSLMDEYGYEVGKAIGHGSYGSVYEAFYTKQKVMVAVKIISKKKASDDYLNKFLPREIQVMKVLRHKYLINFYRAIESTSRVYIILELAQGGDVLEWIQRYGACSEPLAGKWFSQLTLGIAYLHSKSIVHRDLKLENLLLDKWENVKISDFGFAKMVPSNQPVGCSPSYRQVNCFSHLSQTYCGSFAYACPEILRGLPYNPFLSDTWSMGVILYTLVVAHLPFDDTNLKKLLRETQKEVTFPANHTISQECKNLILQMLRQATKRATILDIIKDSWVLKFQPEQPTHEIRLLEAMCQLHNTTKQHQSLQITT

[6] = test system: HUH7; assay: Cell proliferation assay; format: cell-based, human; settings: Homo sapiens, Huh-7; 72 h, mean ± SD
Protocol: (§1) The cancer cell lines indicated in Figure 3 were seeded in 96-well plates at a low density in growth medium. The next day, appropriate controls or the designated concentrations of the compounds were added to each well, and the cells were incubated for 72 h. HUVECs (passage 3) were seeded in 96-well plates in growth medium overnight and transferred to serum-free medium for 24 h. The following day, appropriate controls or the designated concentrations of the compounds were added to each well, and 100 ng/mL growth factor (bFGF or VEGF) was added to the indicated wells. The cells were incubated for 48 h. Finally, cell proliferation was determined using a sulforhodamine B (SRB) assay or a cell counting kit-8 (CCK-8) assay. […] IC50 values for proliferation curves were calculated using a 4-parameter logistic nonlinear regression model with SoftMax Pro Software (Molecular Devices, San Jose, USA).

[7] = test system: KATOIII; assay: Cell proliferation assay; format: cell-based, human; settings: Homo sapiens, KATO III; 72 h, mean ± SD
Protocol: as §1

[8] = test system: KG-1; assay: Cell proliferation assay; format: cell-based, human; settings: Homo sapiens, KG-1; 72 h, mean ± SD
Protocol: as §1

[9] = test system: NCI-H1581; assay: Cell proliferation assay; format: cell-based, human; settings: Homo sapiens, NCI-H1581; 72 h, mean ± SD
Protocol: as §1

[10] = test system: NCI-H716; assay: Cell proliferation assay; format: cell-based, human; settings: Homo sapiens, NCI-H716; 72 h, mean ± SD
Protocol: as §1

[11] = test system: OPM2; assay: Cell proliferation assay; format: cell-based, human; settings: Homo sapiens, OPM-2; 72 h, mean ± SD
Protocol: as §1

[12] = test system: RT112; assay: Cell proliferation assay; format: cell-based, human; settings: Homo sapiens, RT-112; 72 h, mean ± SD
Protocol: as §1

[13] = test system: SNU16; assay: Cell proliferation assay; format: cell-based, human; settings: Homo sapiens, SNU-16; 72 h, mean ± SD
Protocol: as §1

[14] = test system: SUM52PE; assay: Cell proliferation assay; format: cell-based, human; settings: Homo sapiens, SUM52PE; 72 h, mean ± SD
Protocol: as §1

[15] = test system: UMUC14; assay: Cell proliferation assay; format: cell-based, human; settings: Homo sapiens, UMUC14; 72 h, mean ± SD
Protocol: as §1

[16] = test system: 11 FGFR- or CSF-1R-dependent cancer cell lines; assay: Cell proliferation assay, sensitive panel; format: cell-based
Protocol: as §1

[17] = test system: BMDM (CSF-1); assay: Macrophage survival (CCK-8); format: cell-based, murine; settings: Mus musculus, BMDM, 168 h; 7 days, mean ± SD
Protocol: Murine bone marrow and human monocytes were stimulated with CSF-1 for 7 days together with the indicated inhibitor, and cell viability was evaluated by the CCK-8 assay. The IC50 values are shown as the mean ± SD (nM) from two independent tests. B-E, To test the impact of 3D185 on the polarization of CSF-1-induced macrophages, murine bone marrow cells and human monocytes were induced to mature into macrophages with CSF-1 for 7 days and then stimulated with CSF-1, IL-4 and IL-13 for an additional 48 h. The expression of the markers MHC-II (b), CD86 (c), and CD206 (d) on induced murine macrophages and CD206 expression on induced human macrophages (e) were determined by flow cytometry, and the mean fluorescence intensity (MFI) was analyzed with FlowJo. Representative data from two independent experiments. f Murine bone marrow cells (left panel) and human monocytes (right panel) were induced to mature into macrophages with CSF-1 for 7 days and then stimulated with CSF-1, IL-4 and IL-13 and treated with vehicle or the indicated inhibitor for an additional 48 h. Then, all cells were collected to count viable cells by staining with trypan blue
Murine bone marrow-derived macrophages (BMDMs) and PBMCs were used for cell viability studies. BMDMs were harvested by flushing the tibias and femurs of 6- to 8-week-old C57BL/6 mice and depleting red blood cells (RBCs) by RBC lysis (Biogems). For BMDM survival, the cells were cultured for 7 days in RPMI 1640 containing 10% fetal bovine serum (FBS), 100 U/mL penicillin, 100 μg/mL streptomycin and 100 ng/mL mouse CSF-1 (or CSF-2) with or without the tested compounds. PBMCs were obtained from HemaCare and cultured for 7 days in RPMI 1640 containing 10% fetal bovine serum (FBS), 100 U/mL penicillin, 100 μg/mL streptomycin and 100 ng/mL human CSF-1 (or CSF-2) with or without the tested compounds. Cell viability was measured using the CCK-8 assay. For IL-4/IL-13-induced macrophage survival analysis, viable cells were counted by trypan blue exclusion.

[18] = test system: CSF-1-differentiated macrophages induced RT112 cell migration; assay: Tumor cell migration assay (Transwell co-culture); format: cell-based, human; settings: 25 nM, 24 h

T3 sequence (O96017 whole entry R145W): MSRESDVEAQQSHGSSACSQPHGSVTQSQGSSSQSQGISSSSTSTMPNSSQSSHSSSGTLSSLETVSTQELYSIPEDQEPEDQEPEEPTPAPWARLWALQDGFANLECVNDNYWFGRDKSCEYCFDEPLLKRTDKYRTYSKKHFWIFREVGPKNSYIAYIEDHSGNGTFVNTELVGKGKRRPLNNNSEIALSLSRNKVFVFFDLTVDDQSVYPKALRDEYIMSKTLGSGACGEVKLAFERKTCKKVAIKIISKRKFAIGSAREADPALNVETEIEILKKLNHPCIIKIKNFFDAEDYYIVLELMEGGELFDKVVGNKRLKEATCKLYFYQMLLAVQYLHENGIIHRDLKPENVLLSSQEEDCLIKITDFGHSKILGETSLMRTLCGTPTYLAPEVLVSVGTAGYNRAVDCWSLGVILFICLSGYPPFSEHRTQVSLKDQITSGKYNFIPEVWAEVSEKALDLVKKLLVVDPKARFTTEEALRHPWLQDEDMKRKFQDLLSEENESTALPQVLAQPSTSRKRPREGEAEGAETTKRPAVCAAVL
T4 sequence (Q16539 whole entry T106M): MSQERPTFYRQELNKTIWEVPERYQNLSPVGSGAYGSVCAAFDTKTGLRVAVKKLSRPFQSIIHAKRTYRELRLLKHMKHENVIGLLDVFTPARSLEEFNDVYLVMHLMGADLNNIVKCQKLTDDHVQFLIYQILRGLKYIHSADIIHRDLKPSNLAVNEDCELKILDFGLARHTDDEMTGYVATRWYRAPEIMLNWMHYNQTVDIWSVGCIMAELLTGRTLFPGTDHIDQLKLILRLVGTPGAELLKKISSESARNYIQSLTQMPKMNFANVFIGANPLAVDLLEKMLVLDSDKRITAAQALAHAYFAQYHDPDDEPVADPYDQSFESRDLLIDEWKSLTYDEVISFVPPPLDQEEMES
T2 sequence (P22607 23-806): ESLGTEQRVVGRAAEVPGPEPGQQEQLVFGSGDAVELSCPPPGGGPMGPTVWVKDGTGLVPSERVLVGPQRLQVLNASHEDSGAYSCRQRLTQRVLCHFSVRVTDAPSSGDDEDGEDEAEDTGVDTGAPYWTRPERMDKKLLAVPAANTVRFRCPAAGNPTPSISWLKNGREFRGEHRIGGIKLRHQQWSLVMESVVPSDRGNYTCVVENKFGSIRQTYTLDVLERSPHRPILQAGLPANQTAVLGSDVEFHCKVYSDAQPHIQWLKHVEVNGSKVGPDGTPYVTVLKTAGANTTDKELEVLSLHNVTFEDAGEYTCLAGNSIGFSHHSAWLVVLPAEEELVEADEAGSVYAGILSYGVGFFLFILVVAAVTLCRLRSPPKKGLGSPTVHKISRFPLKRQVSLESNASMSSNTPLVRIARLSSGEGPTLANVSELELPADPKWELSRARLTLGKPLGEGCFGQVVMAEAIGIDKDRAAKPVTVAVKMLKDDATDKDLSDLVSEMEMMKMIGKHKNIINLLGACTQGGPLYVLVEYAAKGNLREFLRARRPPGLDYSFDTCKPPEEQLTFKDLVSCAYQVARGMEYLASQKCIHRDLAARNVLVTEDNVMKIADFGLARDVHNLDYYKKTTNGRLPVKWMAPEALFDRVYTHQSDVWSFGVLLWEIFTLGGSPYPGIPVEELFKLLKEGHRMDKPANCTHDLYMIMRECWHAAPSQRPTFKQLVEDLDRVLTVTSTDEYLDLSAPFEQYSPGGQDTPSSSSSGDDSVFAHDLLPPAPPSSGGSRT
T1 sequence (P21802 22-821): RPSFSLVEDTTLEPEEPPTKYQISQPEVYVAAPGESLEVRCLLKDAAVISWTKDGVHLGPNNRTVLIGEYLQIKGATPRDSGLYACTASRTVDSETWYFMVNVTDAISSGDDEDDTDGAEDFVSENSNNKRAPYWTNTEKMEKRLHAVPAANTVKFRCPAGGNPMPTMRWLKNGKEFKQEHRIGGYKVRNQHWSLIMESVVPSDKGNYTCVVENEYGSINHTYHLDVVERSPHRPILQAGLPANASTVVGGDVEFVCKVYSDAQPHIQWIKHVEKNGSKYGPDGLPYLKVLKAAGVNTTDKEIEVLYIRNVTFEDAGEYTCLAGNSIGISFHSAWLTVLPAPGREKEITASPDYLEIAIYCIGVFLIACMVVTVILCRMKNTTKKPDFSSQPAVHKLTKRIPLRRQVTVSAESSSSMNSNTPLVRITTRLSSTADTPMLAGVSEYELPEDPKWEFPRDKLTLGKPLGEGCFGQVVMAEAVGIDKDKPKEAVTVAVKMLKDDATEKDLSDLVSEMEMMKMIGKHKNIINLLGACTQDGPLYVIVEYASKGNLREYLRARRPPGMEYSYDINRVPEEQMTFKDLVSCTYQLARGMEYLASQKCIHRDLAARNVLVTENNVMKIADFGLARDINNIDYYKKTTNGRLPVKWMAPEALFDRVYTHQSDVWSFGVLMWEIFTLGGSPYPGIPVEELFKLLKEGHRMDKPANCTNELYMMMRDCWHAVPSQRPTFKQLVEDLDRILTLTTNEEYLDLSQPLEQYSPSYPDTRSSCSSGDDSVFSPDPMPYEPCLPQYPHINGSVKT

COc1cc(OC)c(Cl)c(-c2ccc3c(NC(=O)c4ccc(N5CCNC(C)(C)C5)cc4)n[nH]c3n2)c1Cl [3D185]
IC50 [1]: 1.3 nM
IC50 [2]: 3.6 nM
inhibition at 0.01 µM ([3]; 10 nM): -17%
inhibition at 0.1 µM ([3]; 100 nM): -15%
inhibition at 1 µM ([3]; 1000 nM): -4%
inhibition at 0.01 µM ([4]; 10 nM): 0%
inhibition at 0.1 µM ([4]; 100 nM): 3%
inhibition at 1 µM ([4]; 1000 nM): -3%
inhibition at 0.01 µM ([5]; 10 nM): -6%
inhibition at 0.1 µM ([5]; 100 nM): -10%
inhibition at 1 µM ([5]; 1000 nM): -9%
IC50 [6]: 49.8 ± 1.5 nM
IC50 [7]: 11.3 ± 0.2 nM
IC50 [8]: 2 ± 0.4 nM
IC50 [9]: 17.3 ± 5.7 nM
IC50 [10]: 3 ± 0.4 nM
IC50 [11]: 19.2 ± 4.3 nM
IC50 [12]: 36.8 ± 6.8 nM
IC50 [13]: 0.9 ± 0.1 nM
IC50 [14]: 2 nM
IC50 [15]: 30.9 ± 5.3 nM
IC50 ([16]; FGFR1-, FGFR2-, FGFR3- and CSF-1R-mediated proliferation, read-out: IC50 values, range over cell lines): 0.9 to 36.8 nM
IC50 ([16]; mean over CSF-1R dependent and FGFRs dependent lines, read-out: Mean IC50): 17.3 nM
IC50 [17]: 57.8 nM
effect on macrophage-induced RT112 cell migration [18]: blocking most cell migration
